From US6706767B2, “Therapeutics for chemokine mediated diseases” (Chemokine Therapeutics Corporation, priority 2000, dated 2004) come the findings set out here.

Test [1] deals with neutrophils. The test can be described thus: fMLP induced neutrophil calcium level. The format is cell-based. Conditions: FIG. 6, after 15 seconds stimulation.
In another test the target is MCP-1 receptor (CCR-2) (Homo sapiens, UniProt P41597). The test can be described thus: Inhibition of I125-labeled MCP-1 binding to the MCP-1 receptor (CCR-2). Conditions: I125 labeled MCP-1 as competitor; FIG. 1. On the procedure: A dose response of phenanthrene-9,10-dione at different concentration in comparison to MCP-1.
This example discloses the ability of tricyclic compounds of the invention, such as phenanthrene-9,10-dione (compound 1), for inhibiting binding to the MCP-1 receptor (CCR-2). The binding studies were conducted using I^125 labeled MCP-1 as competitor. […] In FIG. 1, the results of competition studies are plotted using a standard scatchard plot analysis.

The target in another test is T1, CXCR2 (Homo sapiens, UniProt P25025).
T1 sequence (P25025 1-360): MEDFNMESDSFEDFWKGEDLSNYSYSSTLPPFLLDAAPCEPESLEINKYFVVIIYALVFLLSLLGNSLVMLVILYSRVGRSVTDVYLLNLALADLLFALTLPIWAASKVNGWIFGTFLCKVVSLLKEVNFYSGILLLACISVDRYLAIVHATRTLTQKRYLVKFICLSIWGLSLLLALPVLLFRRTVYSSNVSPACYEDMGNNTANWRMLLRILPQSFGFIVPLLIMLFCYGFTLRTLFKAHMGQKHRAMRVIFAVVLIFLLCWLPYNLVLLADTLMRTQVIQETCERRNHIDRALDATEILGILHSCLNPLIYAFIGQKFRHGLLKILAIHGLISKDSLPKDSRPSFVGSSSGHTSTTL
The experiment in a line: Inhibition of IL-8 binding to CXCR2. To be noted: FIG. 8.

Another test relates to human neutrophils. The test can be described thus: Inhibition of IL-8 induced [Ca2+]i mobilization in human neutrophils. The test is classed as cell-based. Conditions: 30 minutes incubation, 10 nM IL-8. On the procedure:
Freshly isolated neutrophils loaded with Fura-2,AM were incubated with phenanthrene-9,10-dione for 30 minutes prior to induction of [Ca^2+]i mobilization by 10 nM IL-8. Values represent the increase in mobilization over basal levels (wavelength averaging at approximately 176 nM) and are the mean +/− one S.D. of n=3 experiments.

In another test the test system is THP-1 cells and T-cells. The experiment in a line: Cytoplasmic calcium rise induced by the compound itself. The test is classed as cell-based. To be noted: analogous to native MCP-1. Here is the method:
(§1) Fura-2,AM loaded THP-1 cells were incubated with M163 for 30 min prior to induction of [Ca^2+]i mobilization by 20 nM MCP-1. Cells were also evaluated in the presence of fMLP (1 mM)/cytochalasin B (0.5 mM) or M163 (600 ng/ml) as positive and negative controls respectively. […] The values represent the mean +/− one S.D.

For test [2], the system named is neutrophils. The test can be described thus: CPPD crystal induced neutrophil activation (chemiluminescence). The test is classed as cell-based. To be noted: 0.3 μg/ml and 1 μg/ml. The source says: (§2) In accordance with this aspect of the invention, tricyclic comounds such as phenanthrene-9,10-dione or corresponding salts may be used for the treatment of inflammatory diseases related to gout and arthritis.

The subject of test [3] is neutrophils. The test can be described thus: fMLP induced neutrophil activation (chemiluminescence). The format is cell-based. To be noted: 0.3 μg/ml and 1 μg/ml.
Excerpt: as §2

The next test deals with THP-1 cells. The experiment in a line: Inhibition of MCP-1 induced [Ca2+]i mobilization in Fura-2,AM loaded THP-1 cells. The format is cell-based. To be noted: Homo sapiens, 0.5 h, 30 min incubation. On the procedure:
as §1

The target of the next test is T2, CXCR1 (Homo sapiens, UniProt P25024).
T2 sequence (P25024 1-350): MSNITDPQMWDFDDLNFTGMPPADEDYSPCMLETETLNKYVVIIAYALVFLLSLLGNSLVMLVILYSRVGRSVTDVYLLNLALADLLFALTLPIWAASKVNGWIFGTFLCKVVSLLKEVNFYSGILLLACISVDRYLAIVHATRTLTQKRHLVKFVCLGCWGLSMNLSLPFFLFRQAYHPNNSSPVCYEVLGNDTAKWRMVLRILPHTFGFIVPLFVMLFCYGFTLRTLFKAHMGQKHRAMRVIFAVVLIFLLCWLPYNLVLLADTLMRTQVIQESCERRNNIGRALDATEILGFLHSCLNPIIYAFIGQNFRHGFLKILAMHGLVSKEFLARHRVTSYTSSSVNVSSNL
The test can be described thus: Inhibition of IL-8 binding to CXCR1. To be noted: FIG. 8.

The test system of a further test is EAE mouse model. The test can be described thus: EAE mouse model of Multiple Sclerosis, clinical scores. The test is classed as in vivo. To be noted: 1 mg/kg/day for 14 days, compared to control saline injection. The source says:
Experimental autoimmune encephalomyelitis (EAE) is a CD4^+ Th1-mediated inflammatory demyelinating disease of the central nervous system (CNS) that serves as a model for multiple sclerosis. It has previously been disclosed that monocyte chemotactic protein-one (MCP-1) regulates acute and relapsing autoimmune encephalomyelitis, and that MCP-1 production in the central nervous system is correlated with relapsing EAE development. In this example, the EAE mouse model for MS is used, in which the disease is induced with Bordetella pertussis toxin (Claude C. A. et. al., (1975) Journal of Immunology 114(5): 1537-1540 and Hosseimi, H. et. al., (2000) Neurology 54 (7): A166, An abstract presented in April 2000 on “Inhibition of proteosome prevents clinical signs in an experimental model of Multiple Sclerosis”). A dose of 1 mg/kg/day in a volume of 100 μl saline was given to animals for 14 days, and individual animals were observed daily and graded accordingly to their clinical severity as follows: grade 0, no abnormality; grade 1, limp tail; grade 2, limp tail and partial hind limb weakness; grade 3, complete hind limb paralysis; grade 4, complete hind limb paralysis and fore limb weakness; grade 5, death.

Where two headings read alike, the source gives them in different places.

MCP-1 receptor (CCR-2), sequence (P41597 whole entry, species assumed): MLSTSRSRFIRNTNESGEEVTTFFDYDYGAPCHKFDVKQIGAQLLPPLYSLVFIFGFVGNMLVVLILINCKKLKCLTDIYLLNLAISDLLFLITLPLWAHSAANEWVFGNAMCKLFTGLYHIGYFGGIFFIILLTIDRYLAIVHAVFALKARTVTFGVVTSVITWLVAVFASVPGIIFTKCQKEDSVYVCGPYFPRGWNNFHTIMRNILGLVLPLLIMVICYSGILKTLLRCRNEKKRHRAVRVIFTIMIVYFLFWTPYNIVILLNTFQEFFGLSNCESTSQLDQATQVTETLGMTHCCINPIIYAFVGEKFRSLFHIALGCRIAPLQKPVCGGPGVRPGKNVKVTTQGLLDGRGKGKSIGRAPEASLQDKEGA

One may read the IC50 as the concentration needed to halve the response being measured. As for `O=C1C(=O)c2ccccc2-c2ccccc21` [phenanthrene-9,10-dione], in the test on neutrophils [1], the “inhibition of intracellular calcium ion release” value was “effective inhibitor of intracellular calcium ion release”. For the same compound, the “inhibitory effect on the binding of MCP-1 to CCR-2” value on MCP-1 receptor (CCR-2) is listed as “inhibitory effect”. The “inhibitory effect on the binding of IL-8 to CXCR2” value at CXCR2 is listed as “inhibitory effect”. Besides, in the test on human neutrophils (3 μM), the “suppression of calcium level (IL-8 induced [Ca2+]i mobilization)” value is given as “about 63%”. In addition, the IC50 was 3000 nM in the test with human neutrophils (Neutrophil, 0.5 h); 0.25 µg/mL with THP-1 cells (20 nM MCP-1, read-out: IC50, MCP-1 associated induction of [Ca2+]i mobilization); 120 nM in the test on THP-1 cells (20 nM MCP-1, value in parentheses, read-out: IC50, MCP-1 associated induction of [Ca2+]i mobilization). Besides, the “effect on cytoplasmic calcium concentration” value with THP-1 cells and T-cells is “induced a rapid, transient rise in cytoplasmic calcium concentration”. The “inhibition of CPPD crystal induced neutrophil activation” value in the test on neutrophils [2] was “strong inhibition”. In the test with neutrophils [3], the “inhibition of fMLP induced neutrophil activation” value was “strong inhibition”. Also, on CXCR1, the “inhibitory effect on the binding of IL-8 to CXCR1” value is “inhibitory effect”. For the same compound, the “effect on clinical scores” value in the test with EAE mouse model is given as “beneficial effect on the clinical scores”.
